According to ChEMBL document CHEMBL6109147, “Discovery of Potent STING Inhibitors Bearing a Difluorobenzodioxol Structural Motif as Potent Anti-Inflammatory Agents” (J Med Chem, 2025):
One block for each compound: values may come before it. The source made the active and inactive calls. The rule behind the calls is not given here.

Experiments:
[1] = target: T1, Stimulator of interferon genes protein (Mus musculus, UniProt Q3TBT3); test: Inhibition of mouse STING in mouse RAW cells assessed as secreted luciferase reporter of interferon stimulated gene (ISG) measured after 24 hrs incubation by QUANTI-Luc detection assay; assay type: cell-based
T1 sequence (Q3TBT3 whole entry): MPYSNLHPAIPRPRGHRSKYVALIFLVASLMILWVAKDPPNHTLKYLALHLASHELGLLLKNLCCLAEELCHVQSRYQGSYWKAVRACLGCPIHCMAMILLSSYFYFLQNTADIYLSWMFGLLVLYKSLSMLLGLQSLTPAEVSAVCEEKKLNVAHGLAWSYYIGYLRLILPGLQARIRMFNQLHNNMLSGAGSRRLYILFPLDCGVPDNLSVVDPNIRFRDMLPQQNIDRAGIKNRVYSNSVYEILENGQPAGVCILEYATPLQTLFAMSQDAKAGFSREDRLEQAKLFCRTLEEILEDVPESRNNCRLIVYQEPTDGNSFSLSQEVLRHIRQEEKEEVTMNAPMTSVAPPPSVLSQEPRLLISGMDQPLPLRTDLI

[2] = Metabolic stability in human liver microsomes assessed as half life; assay type: ADME, Microsome
[3] = Half life in Sprague-Dawley rat at 1 mg/kg, iv; assay type: ADME, organism-based; conditions: in vivo
[4] = Volume of distribution at steady state in Sprague-Dawley rat at 1 mg/kg, iv; assay type: ADME, organism-based; conditions: in vivo
Mus musculus [5] = test: Anti-inflammatory activity against MSA-2 induced C57BL/6 mouse inflammation model assessed as inhibition of MSA-2 induced Cxcl-10 mRNA expression in kidney at 10 mg/kg, ip pre-treated for 1 hr followed by stimulated with MSA-2 for 4 hrs by real-time PCR analysis; assay type: functional, organism-based; conditions: time 5.0 hrs
Mus musculus [6] = test: Anti-inflammatory activity against MSA-2 induced C57BL/6 mouse inflammation model assessed as inhibition of MSA-2 induced IL-6 mRNA expression in kidney at 10 mg/kg, ip pre-treated for 1 hr followed by stimulated with MSA-2 for 4 hrs by real-time PCR analysis; assay type: functional, organism-based; conditions: time 5.0 hrs
Mus musculus [7] = test: Anti-inflammatory activity against MSA-2 induced C57BL/6 mouse inflammation model assessed as inhibition of MSA-2 induced Isg15 mRNA expression in kidney at 10 mg/kg, ip pre-treated for 1 hr followed by stimulated with MSA-2 for 4 hrs by real-time PCR analysis; assay type: functional, organism-based; conditions: time 5.0 hrs
[8] = Metabolic stability in rat liver microsomes assessed as microsomal intrinsic clearance; assay type: ADME, Microsome; conditions: read-out: CLH
[9] = Metabolic stability in mouse liver microsomes assessed as liver intrinsic clearance; assay type: ADME, Microsome
Mus musculus [10] = test: Anti-inflammatory activity against MSA-2 induced C57BL/6 mouse inflammation model assessed as inhibition of MSA-2 induced IL-6 level in kidney at 10 mg/kg, ip pre-treated for 1 hr followed by stimulated with MSA-2 for 4 hrs by ELISA; assay type: functional, organism-based; conditions: time 5.0 hrs
[11] = Metabolic stability in mouse liver microsomes assessed as microsomal intrinsic clearance; assay type: ADME, Microsome; conditions: read-out: CLH
Mus musculus [12] = test: Anti-inflammatory activity against MSA-2 induced C57BL/6 mouse inflammation model assessed as inhibition of MSA-2 induced Isg56 RNA expression in kidney at 10 mg/kg, ip pre-treated for 1 hr followed by stimulated with MSA-2 for 4 hrs by real-time PCR analysis; assay type: functional, organism-based; conditions: time 5.0 hrs
[13] = MRT (0 to infinity) in Sprague-Dawley rat at 1 mg/kg, iv; assay type: ADME, organism-based; conditions: in vivo
[14] = Metabolic stability in human liver microsomes assessed as liver intrinsic clearance; assay type: ADME, Microsome
[15] = Clearance in Sprague-Dawley rat at 1 mg/kg, iv; assay type: ADME, organism-based; conditions: in vivo
[16] = Metabolic stability in mouse liver microsomes assessed as half life; assay type: ADME, Microsome
[17] = Metabolic stability in rat liver microsomes assessed as half life; assay type: ADME, Microsome
HEK293 = test: Protection of Cisplatin induced apoptosis in human HEK293 cells assessed as apoptotic cells at 10 uM measured after 72 hrs by flow cytometry; assay type: functional, cell-based
Mus musculus [18] = test: Anti-inflammatory activity against MSA-2 induced C57BL/6 mouse inflammation model assessed as inhibition of MSA-2 induced IP-10 level in plasma at 10 mg/kg, ip pre-treated for 1 hr followed by stimulated with MSA-2 for 4 hrs by ELISA; assay type: functional, organism-based; conditions: time 5.0 hrs
[19] = Metabolic stability in rat liver microsomes assessed as liver intrinsic clearance; assay type: ADME, Microsome
Mus musculus [20] = test: Anti-inflammatory activity against MSA-2 induced C57BL/6 mouse inflammation model assessed as inhibition of MSA-2 induced TNF-alpha mRNA expression in kidney at 10 mg/kg, ip pre-treated for 1 hr followed by stimulated with MSA-2 for 4 hrs by real-time PCR analysis; assay type: functional, organism-based; conditions: time 5.0 hrs
[21] = Metabolic stability in human liver microsomes assessed as microsomal intrinsic clearance; assay type: ADME, Microsome; conditions: read-out: CLH
[22] = AUC (0 to infinity) in Sprague-Dawley rat at 1 mg/kg, iv; assay type: ADME, organism-based; conditions: in vivo
Mus musculus [23] = test: Anti-inflammatory activity against MSA-2 induced C57BL/6 mouse inflammation model assessed as inhibition of MSA-2 induced IP-10 level in kidney at 10 mg/kg, ip pre-treated for 1 hr followed by stimulated with MSA-2 for 4 hrs by ELISA; assay type: functional, organism-based; conditions: time 5.0 hrs
Mus musculus [24] = test: Anti-inflammatory activity against MSA-2 induced C57BL/6 mouse inflammation model assessed as inhibition of MSA-2 induced IL-6 level in plasma at 10 mg/kg, ip pre-treated for 1 hr followed by stimulated with MSA-2 for 4 hrs by ELISA; assay type: functional, organism-based; conditions: time 5.0 hrs
[25] = target: Stimulator of interferon genes protein (Homo sapiens) (UniProt Q86WV6); test: Binding affinity to Flag-tagged human STING expressed in HEK293T cells assessed as labelling pretreated for 15 mins with (E)-1-(5-(3-Cyanoprop-1-en-1-yl)-1H-indol-3-yl)-3-(2,2-difluorobenzo[d][1,3]dioxol-5-yl)urea followed by treated at 1 uM for 1 hr by TAMRA-N3 fluorescent assay; assay type: cell-based; conditions: time 75.0 min
Sequence of Stimulator of interferon genes protein (Homo sapiens) (Q86WV6 whole entry): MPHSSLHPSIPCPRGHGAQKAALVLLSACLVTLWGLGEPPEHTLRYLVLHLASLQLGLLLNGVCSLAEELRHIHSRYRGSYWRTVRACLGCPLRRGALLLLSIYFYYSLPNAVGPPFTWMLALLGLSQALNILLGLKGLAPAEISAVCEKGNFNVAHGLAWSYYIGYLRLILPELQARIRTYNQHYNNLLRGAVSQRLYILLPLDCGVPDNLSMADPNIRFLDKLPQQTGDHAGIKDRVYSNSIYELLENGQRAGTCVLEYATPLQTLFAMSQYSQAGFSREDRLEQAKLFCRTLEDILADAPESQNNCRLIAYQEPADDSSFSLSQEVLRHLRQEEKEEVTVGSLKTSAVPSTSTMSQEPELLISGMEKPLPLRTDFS

[26] = target: Stimulator of interferon genes protein (Homo sapiens) (UniProt Q86WV6); test: Binding affinity to Flag-tagged human STING expressed in HEK293T cells assessed as labelling measured after 1 hr by TAMRA-N3 fluorescent assay; assay type: cell-based
[27] = Inhibition of intracellular DNA induced Ifnb mRNA expression in human IMR-90 cells measured after 6 hrs by PCR assay; conditions: IMR-90, 6 h

Compound: O=C(Nc1ccc2c(c1)OC(F)(F)O2)Nc1c[nH]c2ccc(Cl)cc12
IC50 [1]: 815 nM

Compound: CCc1ccc(NC(=O)Nc2c[nH]c3ccccc23)cc1
half-life [2]: 12.1 min
half-life [3]: 9.6 min
Vd ([4]; Sprague-Dawley, read-out: Vdss): 1.94 L/kg
inhibition (Mus musculus [5]): Active
inhibition (Mus musculus [6]): Active
inhibition (Mus musculus [7]): Active
microsomal CLint [8]: 1360 µL/min/mg
CLH [9]: 873 µL/min/mg
inhibition (Mus musculus [10]): Active
microsomal CLint [11]: 220 µL/min/mg
inhibition (Mus musculus [12]): Active
MRT inf ([13]; Sprague-Dawley): 12 min
CLH [14]: 103 µL/min/mg
clearance [15]: 144 mL/min/kg
half-life [16]: 6.29 min
half-life [17]: 1.02 min
Activity (HEK293): Active
inhibition (Mus musculus [18]): Active
CLH [19]: 2448 µL/min/mg
inhibition (Mus musculus [20]): Active
microsomal CLint [21]: 115 µL/min/mg
AUC(0-inf) [22]: 116 ng·h/mL
inhibition (Mus musculus [23]): Active
inhibition (Mus musculus [24]): Active

Compound: O=C(Nc1ccc2c(c1)OC(F)(F)O2)Nc1c[nH]c2ccc(Br)cc12
IC50 [1]: 776 nM

Compound: C#Cc1ccc2[nH]cc(NC(=O)Nc3ccc4c(c3)OC(F)(F)O4)c2c1
IC50 [1]: 5450 nM
Activity [25]: inactive
Activity [26]: Dose-dependent-effect

Compound: O=C(Nc1cccc2c1OC(F)(F)O2)Nc1c[nH]c2ccccc12
IC50 [1]: 457 nM

Compound: CC[C@@H]1NC(=O)[C@@H]2[C@H](Cl)[C@H](Cl)CN2C(=O)[C@H](CC)NC(=O)C[C@H](c2ccccc2)NC(=O)[C@H](CO)NC1=O
IC50 [27]: 10800 nM

The next lines start with the values.

half-life [3]: 25.8 min
Vdss ([4]; iv, 1 mg/kg): 14.04 L/kg
MRT ([13]; iv, 1 mg/kg): 16.2 min
IC50 [1]: 52.3 nM
AUC(0-inf) [22]: 43.8 ng·h/mL
Compound: Fc1cnc2[nH]cc(Nc3nc4cc(C5CCCC5)ccc4[nH]3)c2c1

IC50 [1]: 407 nM
Compound: O=C(Nc1ccc2c(c1)OC(F)(F)O2)Nc1c[nH]c2ccccc12

IC50 [1]: 305 nM
Compound: Fc1cc2[nH]cc(Nc3nc4cc(C5CCCC5)ccc4[nH]3)c2cc1F

IC50 [1]: 229 nM
Compound: Fc1ccc2[nH]cc(Nc3nc4cc5c(cc4[nH]3)OC(F)(F)O5)c2c1

IC50 [1]: 210 nM
Compound: Fc1ccc2[nH]cc(Nc3nc4cc(C5CCCC5)ccc4[nH]3)c2c1
